System: heart failure patients
Test: Effect of the combination on the mortality of heart failure patients
Type: in vivo, human
Method: Effect of the Combination on the Mortality of Heart Failure Patients
A 6-hour infusion of levosimendan using a bolus of 6, 12 or 24 μg/kg and subsequent infusion of 0.1, 0.2 or 0.4 μg/kg/min was given to heart failure patients with or without concomitant use of a beta-blocker. The 72-hour, 14-day and 180 day mortality was measured. It can be seen that the combination provided synergistic reduction in the mortality of the heart failure patients.

[1] = LS 6 + 0.1 (bolus 6 μg/kg, infusion 0.1 μg/kg/min, 6-hour), did not receive beta-blocker, N = 60
[2] = LS 6 + 0.1 (bolus 6 μg/kg, infusion 0.1 μg/kg/min, 6-hour), received beta-blocker, N = 43
[3] = LS 12 + 0.2 (bolus 12 μg/kg, infusion 0.2 μg/kg/min, 6-hour), did not receive beta-blocker, N = 62
[4] = LS 12 + 0.2 (bolus 12 μg/kg, infusion 0.2 μg/kg/min, 6-hour), received beta-blocker, N = 38
[5] = LS 24 + 0.2 (bolus 24 μg/kg, infusion 0.2 μg/kg/min, 6-hour), did not receive beta-blocker, N = 67
[6] = LS 24 + 0.2 (bolus 24 μg/kg, infusion 0.2 μg/kg/min, 6-hour), received beta-blocker, N = 32
[7] = LS 24 + 0.4 (bolus 24 μg/kg, infusion 0.4 μg/kg/min, 6-hour), did not receive beta-blocker, N = 57
[8] = LS 24 + 0.4 (bolus 24 μg/kg, infusion 0.4 μg/kg/min, 6-hour), received beta-blocker, N = 42

## CC1CC(=O)NN=C1c1ccc(NN=C(C#N)C#N)cc1 (single isomer, unassigned; (-)) [LS, (−)-enantiomer of [[4-(1,4,5,6-tetrahydro-4-methyl-6-oxo-3-pyridazinyl)phenyl]hydrazono]propanedinitrile]
[1]
  14-day mortality, %: 15.0%
  72-hour mortality, %: 8.3%
  180-day mortality, %: 50.0%
[2]
  14-day mortality, %: 9.3%
  72-hour mortality, %: 2.3%
  180-day mortality, %: 30.2%
[3]
  14-day mortality, %: 8.1%
  72-hour mortality, %: 1.6%
  180-day mortality, %: 40.3%
[4]
  14-day mortality, %: 10.5%
  72-hour mortality, %: 5.3%
  180-day mortality, %: 26.3%
[5]
  14-day mortality, %: 14.9%
  72-hour mortality, %: 7.5%
  180-day mortality, %: 46.3%
[6]
  14-day mortality, %: 9.4%
  72-hour mortality, %: 0.0%
  180-day mortality, %: 37.5%
[7]
  14-day mortality, %: 15.8%
  72-hour mortality, %: 8.8%
  180-day mortality, %: 45.6%
[8]
  14-day mortality, %: 4.8%
  72-hour mortality, %: 0.0%
  180-day mortality, %: 23.8%
